Reference: patent US10759799B2, “Indazole containing macrocycles and therapeutic uses thereof” (Samumed, LLC, priority 2018, dated 2020)

What was measured:
[1] = system: Wnt activity (Sp5-Luc reporter, SW480 colon carcinoma cells); test: Sp5-Luc reporter gene screening assay for Wnt activity in SW480 cells; format: cell-based; conditions: Homo sapiens; for EC50: Sp5-Luc reporter, SW480 cells, 36 to 48 hours
Excerpt: The screening assay for Wnt activity is described as follows. Reporter cell lines can be generated by stably transducing cancer cell lines (e.g., colon cancer) or primary cells (e.g., IEC-6 intestinal cells) with a lentiviral construct that includes a Wnt-responsive promoter driving expression of the firefly luciferase gene.
SW480 colon carcinoma cells were transduced with a lentiviral vector expressing luciferase with a human Sp5 promoter consisting of a sequence of eight TCF/LEF binding sites. SW480 cells stably expressing the Sp5-Luc reporter gene and a hygromycin resistance gene were selected by treatment with 150 μg/mL of hygromycin for 7 days. These stably transduced SW480 cells were expanded in cell culture and used for all further screening activities. […] For Sp5-Luc reporter gene assays, the cells were plated at 4,000 cells/well in 384-well plates with a DMEM medium containing 1% fetal bovine serum, and 1% Penicillin-Streptomycin and incubated for 36 to 48 hours at 37° C. and 5% CO2. Following incubation, 15 μl of BriteLite Plus luminescence reagent (Perkin Elmer) was added to each well of the 384-well assay plates. The plates were placed on an orbital shaker for 2 min and then luminescence was quantified using the Envision (Perkin Elmer) plate reader. Readings were normalized to DMSO only treated cells, and normalized activities were utilized for EC50 calculations using the dose-response log (inhibitor) vs. response-variable slope (four parameters) nonlinear regression feature available in GraphPad Prism 5.0 (or Dotmatics).

[2] = molecular target: recombinant DYRK1A kinase (Homo sapiens (Human), UniProt Q13627); test: DYRK1A kinase assay (Ser/Thr 18 peptide Z-lyte, FRET); format: biochemical; conditions: 30 μM ATP, one hour at room temperature, read-out: EC50 (μM) (IC50 per method)
Excerpt: Representative compounds were screened using the assay procedure for DYRK1A kinase activity as described below.
The DYRK1A kinase assay was run using the Ser/Thr 18 peptide Z-lyte assay kit according to manufacturer's instructions (Life Technologies—a Division of Thermo-Fisher). This is a non-radioactive assay using fluorescence resonance energy transfer (FRET) between coumarin and fluorescein to detect kinase activity which is represented as a ratio of coumarin emission/fluorescein emission.
Briefly, recombinant DYRK1A kinase, ATP and Ser/Thr peptide 18 were prepared in 1× Kinase buffer to final concentrations of 0.19 μg/mL, 30 μM, and 4 μM respectively. The mixture was allowed to incubate with the representative compounds for one hour at room temperature. All reactions were performed in duplicate. Unphosphorylated (“0% Control”) and phosphorylated (“100% control”) forms of Ser/Thr 18 served as control reactions. Additionally, an 11-point dose-response curve of Staurosporine (1 uM top) was run to serve as a positive compound control.
After incubation, Development Reagent A was diluted in Development Buffer then added to the reaction and allowed to further incubate for one hour at room temperature. The plate was read at Ex 400 Em 455 to detect the coumarin signal and Ex 400 Em 520 to measure the signal (EnVision Multilabel Plate Reader, PerkinElmer).
The Emission ratio (Em) was calculated as a ratio of the coumarin (C) emission signal (at 445 nm)/Fluorescein (F) emission signal (at 520 nm). The percent phosphorylation was then calculated using the following formula: [1−((Em ratio×F100%)−C100%)/((C0%−C100%)+(Em ratio×(F100%−F0%)))].

[3] = system: IL-6; test: IL-6 inhibition in LPS-stimulated human PBMCs (HTRF); format: cell-based; conditions: PBMC; for EC50: huPBMCs, LPS 50 ng/mL, 22 hours, IL-6 HTRF; for inhibition at 10 µM: read-out: percent inhibition at 10 μM
Description: Fresh Normal PB MNC (Catalog # PB001, AllCells, Alameda, Calif.) were shipped overnight at 4° C. and resuspended in Roswell Park Memorial Institute (RPMI) 1640 Medium, with GlutaMAX Supplement (Catalog #61870127, ThermoFisher Scientific, Waltham, Mass.) supplemented with 1% Penicillin-Streptomycin (Catalog #15140163, ThermoFisher Scientific, Waltham, Mass.) and 1% fetal bovine serum (FBS) (Catalog #16140089, ThermoFisher Scientific, Waltham, Mass.) assay media.
Compound Screening: Fresh normal human peripheral blood mononuclear cells (huPBMCs) were resuspended in 1% FBS-RPMI assay media with 1% Penicillin-Streptomycin 1% to a cell concentration of 1×10e6 cells/mL. […] 50 ng/mL of Lipopolysaccharides from Escherichia coli 0111:B4 (Catalog # L5293-2ML, Sigma-Aldrich, St. Louis, Mo.) was added after 2 hours and cells were incubated for another 22 hours at 37° C.-5% CO2. After 22 hour incubation, a mixture of anti-IL6 XL665 and anti-IL-6 Cryptate diluted in reconstitution buffer (Catalog #62IL6PEC, Cisbio Inc., Bedford, Mass.) was added to each well. Following incubation for 3 hours at room temperature, Homogeneous Time-Resolved Fluorescence (HTRF) was measured using the Envision (Perkin Elmer, Shelton, Conn.) at 665 nm and […]. The ratio of fluorescence at 665 nm to 620 nm was used as a readout for IL-6 quantification. All samples were processed in duplicate. Readings were normalized to DMSO treated cells and normalized activities were utilized for EC50 calculations. EC50 was determined using software generated by Dotmatics Limited (Windhill Bishops Stortford Herts, UK) using the Levenberg-Marquardt 4 parameter fitting procedure with finite different gradients.

[4] = system: primary human mesenchymal stem cells (hMSCs); test: Chondrogenesis induction in hMSCs (nodule count, relative to TGF-β3); format: cell-based; conditions: 6 days; for Conc (nM) of 50% TGF-β3 activity / Max. Activity as % TGF-β3 activity: TGF-β3 10 ng/mL positive control; for Conc (nM) of Max. activity: chondrogenic nodules
Excerpt: Representative compounds were screened using primary human mesenchymal stem cells (hMSCs) to determine their ability to induce chondrogenesis (process by which cartilage is developed).
Human Mesenchymal Stem Cell Culture: Primary human mesenchymal stem cells (hMSCs) were purchased from Lonza (Walkersville, Md.) and expanded in Mesenchymal Stem Cell Growth Media (Lonza). Cells between passage 3 and 6 were used for the experiments.
Number of nodules in each well was normalized to the average of 3 DMSO treated wells on the same plate using Excel (Microsoft Inc.). The normalized averages (fold change over DMSO) of 3 replicate wells for each compound concentration were calculated. Due to solubility limitations of some of the compounds, curve fitting was incomplete leading to inaccurate EC50 determinations.
Using TGF-β3 as a positive control, the concentration of representative compounds required to induce equivalent levels of chondrogenesis is reported. In addition, the maximum activity of each compound and the respective dose that each compound reached maximum chondrogenesis activity is reported.

Structure (SMILES)	EC50 [1]	IC50 [2]	EC50 [3]	inhibition at 10 µM [3]	Conc (nM) of 50% TGF-β3 activity [4]	Max. Activity as % TGF-β3 activity [4]	Conc (nM) of Max. activity [4]	inhibition at 10 µM ([1]; SW480, read-out: percent inhibition at 10 μM)
O=C1CCc2cccc(c2)-c2cccc3[nH]c(nc23)-c2n[nH]c3cnc(cc23)-c2cncc(c2)N1 [Compound 6, (Z)-2^1H,3^1H-8-Aza-2(5,3)-pyrazolo[3,4-c]pyridina-3(2,4)-benzo[d]imidazola-1(3,5)-pyridina-4(1,3)-benzenacyclooctaphan-7-one]	9 nM	0.096 µM	> 10000 nM	9.5%	–	–	–	–
CN1Cc2cccc(c2)-c2cccc3[nH]c(nc23)-c2n[nH]c3ccc(cc23)-c2cnn(C)c2C1 [Compound 29]	82 nM	0.412 µM	241 nM	–	–	–	–	–
CN1CCCn2cc(nn2)-c2cncc3[nH]c(nc23)-c2n[nH]c3ccc(cc23)-c2cncc(c2)C1 [Compound 45, (1^4Z,2^1Z)-6-Methyl-1 ^1H,2^3H,3^1H-6-aza-2(7,2)-imidazo[4,5-c]pyridina-3(3,5)-indazola-4(3,5)-pyridina-1(4,1)-triazolacyclononaphane]	338 nM	0.004 µM	> 10000 nM	5.9%	–	–	–	–
O=C1CCc2cccc(c2)-c2cccc3[nH]c(nc23)-c2n[nH]c3ccc(nc23)-c2cncc(c2)N1 [Compound 7, (Z)-2^1H,3^1H-8-Aza-2(5,3)-pyrazolo[4,3-b]pyridina-3 (2,4)-benzo[d]imidazola-1(3,5)-pyridina-4(1,3)-benzenacyclooctaphan-7-one]	437 nM	> 10 µM	> 10000 nM	11.6%	–	–	–	–
CN1CCCCN(C)c2nccc3[nH]c(nc23)-c2n[nH]c3ccc(cc23)-c2cncc(c2)C1 [Compound 51, (Z)-5,10-Dimethyl-1H,2^1H-5,10-diaza-1(2,4)-imidazo[4,5-c]pyridina-2(3,5)-indazola-3(3,5)-pyridinacyclodecaphane]	577 nM	0.002 µM	414 nM	–	5000 nM	231%	5000 nM	–
O=C1CCc2cccc(c2)-c2cccc3[nH]c(nc23)-c2n[nH]c3ncc(cc23)-c2cncc(c2)N1 [Compound 5, (Z)-2^1H,3^1H-8-Aza-2(5,3)-pyrazolo[3,4-b]pyridina-3(2,4)-benzo[d]imidazola-1(3,5)-pyridina-4(1,3)-benzenacyclooctaphan-7-one]	124 nM	0.709 µM	> 10000 nM	9.2%	–	–	–	–
O=C1NC2CCC(CC2)NCc2cncc(c2)-c2ccc3[nH]nc(c3c2)-c2nc3c1cccc3[nH]2 [Compound 64, (6^1s,6^4s,Z)-1^1H,2^1H-5,7-diaza-1 (2,4),2(3,5)-dibenzo[d]imidazola-3(3,5)-pyridina-6(1,4)-cyclohexanacyclooctaphan-8-one]	> 10000 nM	0.448 µM	> 10000 nM	12.7%	–	–	–	47.4%

Continued, in another order:

EC50 [1]	IC50 [2]	EC50 [3]	Structure (SMILES)	inhibition at 10 µM [3]	Conc (nM) of 50% TGF-β3 activity [4]	Max. Activity as % TGF-β3 activity [4]	Conc (nM) of Max. activity [4]	inhibition at 10 µM ([1]; SW480, read-out: percent inhibition at 10 μM)
475 nM	> 10 µM	3010 nM	c1cc2cc(c1)-c1cccc3[nH]c(nc13)-c1n[nH]c3ccc(cc13)-c1cncc(c1)OCCC2 [Compound 57]	–	–	–	–	–
59 nM	0.111 µM	585 nM	Cn1ncc2c1CNCc1cccc(c1)-c1cccc3[nH]c(nc13)-c1n[nH]c3ccc-2cc13 [Compound 15, (Z)-Methyl-1^1H,2^1H,3^1H-6-aza-2(5,3),3 (2,4)-diindazola-1 (4,5)-pyrazola-4(1,3)-benzenacycloheptaphane]	–	–	–	–	–
11 nM	0.018 µM	135 nM	c1cc2cc(c1)-c1cccc3[nH]c(nc13)-c1n[nH]c3ccc(cc13)-c1cncc(c1)CNC2 [Compound 10, (Z)-2^1H,3^1H-6-Aza-2(5,3),3(2,4)-diindazola-1(3,5)-pyridina-4(1,3)-benzenacycloheptaphane]	–	50 nM	607%	600 nM	–
22 nM	0.266 µM	381 nM	O=C1CCc2cccc(c2)-c2cccc3[nH]c(nc23)-c2n[nH]c3ccc(cc23)-c2cncc(c2)N1 [Compound 1]	–	200 nM	497%	5000 nM	–
10 nM	0.068 µM	161 nM	CN1Cc2cncc(c2)-c2ccc3[nH]nc(c3c2)-c2nc3c(cccc3[nH]2)-c2cccc(c2)C1 [Compound 22, (Z)-6-Methyl-2^1H,3^1H-6-aza-2(5,3),3(2,4)-diindazola-1(3,5)-pyridina-4(1,3)-benzenacycloheptaphane]	–	50 nM	440%	600 nM	–
22 nM	0.006 µM	3820 nM	O=C1CCc2cccc(c2)-c2nccc3[nH]c(nc23)-c2n[nH]c3ccc(cc23)-c2cncc(c2)N1 [Compound 2, (Z)-2^1H,3^1H-5-Aza-2(4,2)-imidazo[4,5-c]pyridina-3 (3,5)-indazola-4(3,5)-pyridina-1(1,3)-benzenacyclooctaphan-6-one]	–	–	–	–	–
42 nM	0.003 µM	65 nM	c1cc2cc(c1)-c1cncc3[nH]c(nc13)-c1n[nH]c3ccc(cc13)-c1cncc(c1)CNC2 [Compound 8, (Z)-2^3H,3H-6-Aza-2(7,2)-imidazo[4,5-c]pyridina-3(3,5)-indazola-4(3,5)-pyridina-1(1,3)-benzenacycloheptaphane]	–	200 nM	558%	1700 nM	–
87 nM	0.005 µM	612 nM	O=C1COc2cccc(c2)-c2cncc3[nH]c(nc23)-c2n[nH]c3ccc(cc23)-c2cncc(c2)N1 [Compound 38, (Z)-2^3H,3^1H-8-Oxa-5-aza-2(7,2)-imidazo[4,5-c]pyridina-3(3,5)-indazola-4(3,5)-pyridina-1(1,3)-benzenacyclooctaphan-6-one]	–	100 nM	185%	100 nM	–
